According to ChEMBL document CHEMBL5154883, “Conformational Constrained 4-(1-Sulfonyl-3-indol)yl-2-phenylaminopyrimidine Derivatives as New Fourth-Generation Epidermal Growth Factor Receptor Inhibitors Targeting T790M/C797S Mutations” (J Med Chem, 2022):

Tests used:
BaF3 [1] = experiment: Antiproliferative activity against mouse BaF3 cells stably expressing EGFR L858R/T790M/C797S mutant assessed as inhibition of cell growth incubated for 72 hrs by CCK-8 assay; format: functional, cell-based; conditions: BaF3, 72 h
[2] = biological target: Epidermal growth factor receptor (Homo sapiens, UniProt P00533); experiment: Inhibition of wild type EGFR (unknown origin) by ELISA
Sequence of Epidermal growth factor receptor (Homo sapiens, UniProt P00533) (P00533 whole entry): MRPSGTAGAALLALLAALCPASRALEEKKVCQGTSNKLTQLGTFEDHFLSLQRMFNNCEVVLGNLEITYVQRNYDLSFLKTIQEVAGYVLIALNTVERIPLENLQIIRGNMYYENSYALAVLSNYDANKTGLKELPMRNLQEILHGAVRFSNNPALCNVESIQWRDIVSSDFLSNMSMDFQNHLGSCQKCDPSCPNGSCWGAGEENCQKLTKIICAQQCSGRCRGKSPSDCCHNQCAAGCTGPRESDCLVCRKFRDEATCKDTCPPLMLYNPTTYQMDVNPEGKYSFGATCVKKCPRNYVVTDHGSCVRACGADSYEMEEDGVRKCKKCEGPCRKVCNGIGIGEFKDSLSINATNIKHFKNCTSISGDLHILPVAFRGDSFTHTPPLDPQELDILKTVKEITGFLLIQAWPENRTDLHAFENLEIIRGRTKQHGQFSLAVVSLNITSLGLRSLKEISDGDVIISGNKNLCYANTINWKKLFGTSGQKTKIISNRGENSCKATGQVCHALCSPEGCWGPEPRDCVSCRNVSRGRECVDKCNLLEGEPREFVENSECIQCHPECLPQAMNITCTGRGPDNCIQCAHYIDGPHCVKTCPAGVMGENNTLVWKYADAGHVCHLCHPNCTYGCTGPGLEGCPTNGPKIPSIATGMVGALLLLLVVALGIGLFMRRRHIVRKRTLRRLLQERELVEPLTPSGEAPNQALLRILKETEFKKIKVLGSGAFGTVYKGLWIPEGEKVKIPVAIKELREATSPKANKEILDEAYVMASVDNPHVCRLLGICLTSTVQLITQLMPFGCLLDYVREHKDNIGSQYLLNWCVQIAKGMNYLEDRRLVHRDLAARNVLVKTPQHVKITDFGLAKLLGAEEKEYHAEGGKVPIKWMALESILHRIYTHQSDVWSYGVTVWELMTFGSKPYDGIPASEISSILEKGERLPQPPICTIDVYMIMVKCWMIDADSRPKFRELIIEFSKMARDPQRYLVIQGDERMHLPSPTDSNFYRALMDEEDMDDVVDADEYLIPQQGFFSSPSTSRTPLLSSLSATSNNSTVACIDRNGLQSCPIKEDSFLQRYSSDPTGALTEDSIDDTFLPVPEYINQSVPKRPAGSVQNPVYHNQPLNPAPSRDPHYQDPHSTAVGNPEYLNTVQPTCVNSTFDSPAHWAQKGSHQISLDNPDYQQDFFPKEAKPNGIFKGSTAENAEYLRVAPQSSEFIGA

[3] = biological target: Epidermal growth factor receptor (Homo sapiens, UniProt P00533, C797S/L858R/T790M); experiment: Inhibition of EGFR L858R/T790M/C797S mutant (unknown origin) by ELISA
Sequence of Epidermal growth factor receptor (Homo sapiens, UniProt P00533, C797S/L858R/T790M) (P00533 25-1210 T790M/C797S/L858R limits assumed): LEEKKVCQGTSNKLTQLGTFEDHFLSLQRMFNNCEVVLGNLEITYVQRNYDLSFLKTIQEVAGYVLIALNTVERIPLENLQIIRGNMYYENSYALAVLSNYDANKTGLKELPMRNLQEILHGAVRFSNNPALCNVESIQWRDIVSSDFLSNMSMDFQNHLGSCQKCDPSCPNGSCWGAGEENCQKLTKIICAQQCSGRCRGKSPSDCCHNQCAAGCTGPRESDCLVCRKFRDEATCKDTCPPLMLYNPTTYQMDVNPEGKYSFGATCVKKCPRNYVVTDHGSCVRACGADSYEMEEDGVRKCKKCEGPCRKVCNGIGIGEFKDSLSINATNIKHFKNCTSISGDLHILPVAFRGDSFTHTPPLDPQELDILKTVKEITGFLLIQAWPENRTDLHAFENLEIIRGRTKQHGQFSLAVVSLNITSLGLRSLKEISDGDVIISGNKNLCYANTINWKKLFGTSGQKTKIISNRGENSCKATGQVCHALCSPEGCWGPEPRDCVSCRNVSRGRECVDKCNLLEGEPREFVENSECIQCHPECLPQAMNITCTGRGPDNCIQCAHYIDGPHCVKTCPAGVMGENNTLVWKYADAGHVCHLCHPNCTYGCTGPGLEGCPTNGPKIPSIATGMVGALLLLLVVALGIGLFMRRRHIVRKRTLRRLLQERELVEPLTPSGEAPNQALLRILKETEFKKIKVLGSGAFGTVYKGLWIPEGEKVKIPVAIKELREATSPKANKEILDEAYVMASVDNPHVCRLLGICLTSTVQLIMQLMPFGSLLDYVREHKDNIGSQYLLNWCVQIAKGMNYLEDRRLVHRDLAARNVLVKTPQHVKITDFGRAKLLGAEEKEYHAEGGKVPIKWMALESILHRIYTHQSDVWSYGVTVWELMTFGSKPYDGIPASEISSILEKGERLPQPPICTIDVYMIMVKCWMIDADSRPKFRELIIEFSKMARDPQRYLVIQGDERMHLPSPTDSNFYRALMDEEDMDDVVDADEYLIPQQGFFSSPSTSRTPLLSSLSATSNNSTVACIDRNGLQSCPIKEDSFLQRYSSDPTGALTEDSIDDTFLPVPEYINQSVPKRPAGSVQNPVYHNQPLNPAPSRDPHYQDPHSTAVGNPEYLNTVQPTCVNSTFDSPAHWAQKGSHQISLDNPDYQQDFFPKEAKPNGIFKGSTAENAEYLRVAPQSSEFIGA

[4] = Cytotoxicity against mouse IL-3 dependent BaF3 cells assessed as inhibition of cell growth incubated for 72 hrs by CCK-8 assay; format: toxicity, cell-based; conditions: BaF3 cells (IL-3 dependent)
BaF3 [5] = experiment: Antiproliferative activity against mouse BaF3 cells harboring EGFR 19 del/T790M/C797S mutant assessed as reduction in cell viability incubated for 72 hrs by CCK8 assay; format: functional, cell-based; conditions: BaF3, 72 h
PC-9 = experiment: Antiproliferative activity against human osimertinib-resistant PC-9 cells harboring EGFR 19 del/T790M/C797S mutant assessed as reduction in cell viability incubated for 72 hrs by CCK-8 assay; format: functional, cell-based; conditions: PC-9, 72 h
A-431 = experiment: Antiproliferative activity against human A-431 cells harboring wild type EGFR assessed as reduction in cell viability incubated for 72 hrs by CCK-8 assay; format: functional, cell-based; conditions: A-431, 72 h
[6] = biological target: Epidermal growth factor receptor (Homo sapiens, UniProt P00533, L858R/T790M); experiment: Inhibition of EGFR L858R/T790M mutant (unknown origin) by ELISA
Sequence of Epidermal growth factor receptor (Homo sapiens, UniProt P00533, L858R/T790M) (P00533 25-1210 T790M/L858R limits assumed): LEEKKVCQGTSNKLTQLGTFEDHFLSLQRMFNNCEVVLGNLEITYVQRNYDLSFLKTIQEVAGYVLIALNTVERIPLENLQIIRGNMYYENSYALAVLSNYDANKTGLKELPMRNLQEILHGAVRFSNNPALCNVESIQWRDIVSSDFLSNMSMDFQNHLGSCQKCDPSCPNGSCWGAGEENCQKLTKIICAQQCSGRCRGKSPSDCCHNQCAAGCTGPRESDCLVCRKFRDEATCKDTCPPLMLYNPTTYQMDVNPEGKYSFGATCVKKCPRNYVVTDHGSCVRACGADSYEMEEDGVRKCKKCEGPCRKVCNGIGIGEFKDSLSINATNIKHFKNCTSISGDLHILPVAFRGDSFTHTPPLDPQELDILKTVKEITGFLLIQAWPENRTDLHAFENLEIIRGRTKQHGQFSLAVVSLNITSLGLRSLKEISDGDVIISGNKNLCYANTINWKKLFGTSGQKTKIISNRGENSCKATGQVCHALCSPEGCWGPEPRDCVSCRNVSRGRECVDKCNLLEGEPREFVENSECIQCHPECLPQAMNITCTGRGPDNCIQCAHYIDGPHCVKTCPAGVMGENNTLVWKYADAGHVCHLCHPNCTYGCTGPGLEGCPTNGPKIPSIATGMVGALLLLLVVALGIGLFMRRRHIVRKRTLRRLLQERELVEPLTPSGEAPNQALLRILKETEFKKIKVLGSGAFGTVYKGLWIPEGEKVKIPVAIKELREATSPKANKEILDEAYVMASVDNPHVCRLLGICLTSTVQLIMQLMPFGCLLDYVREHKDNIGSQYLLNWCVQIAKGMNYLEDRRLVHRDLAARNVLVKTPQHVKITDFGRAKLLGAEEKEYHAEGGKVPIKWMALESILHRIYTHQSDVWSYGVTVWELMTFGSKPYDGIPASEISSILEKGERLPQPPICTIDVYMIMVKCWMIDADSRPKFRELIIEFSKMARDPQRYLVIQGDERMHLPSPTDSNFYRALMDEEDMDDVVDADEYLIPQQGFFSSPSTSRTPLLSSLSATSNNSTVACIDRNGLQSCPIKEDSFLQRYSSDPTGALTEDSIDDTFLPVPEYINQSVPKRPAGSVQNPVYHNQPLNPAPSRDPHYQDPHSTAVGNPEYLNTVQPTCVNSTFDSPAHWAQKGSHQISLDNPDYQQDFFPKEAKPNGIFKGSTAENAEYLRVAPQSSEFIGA

[7] = biological target: Epidermal growth factor receptor (Homo sapiens, UniProt P00533, C797S/EX19DEL/T790M); experiment: Inhibition of EGFR 19 del/T790M/C797S mutant (unknown origin) by ELISA
Sequence of Epidermal growth factor receptor (Homo sapiens, UniProt P00533, C797S/EX19DEL/T790M) (P00533 whole entry, looked up, stated change not applied): as the sequence (P00533 whole entry) above

[8] = tested on: Epidermal growth factor receptor (Homo sapiens), P04626+P00533+Q15303+P21860 [L858R,T790M,C797S]; experiment: Inhibition of EGFR L858R/T790M/[…] mutant in mouse starved BaF3 cells assessed as reduction in EGFR phosphorylation incubated for 120 mins followed by EGF stimulation for 15 mins by Western blot analysis; format: cell-based; conditions: time 135.0 min, DDE = dose-dependent effect
BaF3 [9] = experiment: Inhibition of EGFR 19del/T790M/[…] mutant in mouse starved BaF3 cells assessed as reduction in ERK phosphorylation incubated for 120 mins followed by EGF stimulation for 15 mins by Western blot analysis; format: cell-based; conditions: time 135.0 min, DDE = dose-dependent effect
[10] = tested on: Epidermal growth factor receptor (Homo sapiens), P04626+P00533+Q15303+P21860 [L858R,T790M,C797S]; experiment: Inhibition of EGFR L858R/T790M/[…] mutant in mouse starved BaF3 cells assessed as reduction in ERK phosphorylation incubated for 120 mins followed by EGF stimulation for 15 mins by Western blot analysis; format: cell-based; conditions: time 135.0 min, DDE = dose-dependent effect
[11] = tested on: Epidermal growth factor receptor (Homo sapiens), P00533 [UNDEFINED MUTATION]; experiment: Inhibition of EGFR 19 del/T790M/C797S mutant in human starved osimertinib-resistant PC-9 cells assessed as reduction in ERK phosphorylation incubated for 120 mins followed by EGF stimulation for 15 mins by Western blot analysis; format: cell-based; conditions: time 135.0 min, DDE = dose-dependent effect
BaF3 [12] = experiment: Inhibition of EGFR 19del/T790M/[…] mutant in mouse starved BaF3 cells assessed as reduction in EGFR phosphorylation incubated for 120 mins followed by EGF stimulation for 15 mins by Western blot analysis; format: cell-based; conditions: time 135.0 min, DDE = dose-dependent effect
[13] = tested on: Epidermal growth factor receptor (Homo sapiens), P00533 [UNDEFINED MUTATION]; experiment: Inhibition of EGFR 19 del/T790M/C797S mutant in human starved osimertinib-resistant PC-9 cells assessed as reduction in EGFR phosphorylation incubated for 120 mins followed by EGF stimulation for 15 mins by Western blot analysis; format: cell-based; conditions: time 135.0 min, DDE = dose-dependent effect

| Compound | IC50 (BaF3 [1]) | IC50 [2] | IC50 [3] | IC50 at 72 h [4] | IC50 [6] | IC50 [7] | further results |
| --- | --- | --- | --- | --- | --- | --- | --- |
| CCS(=O)(=O)n1cc2c3ccc(cc31)OCCCCCOc1cc(ccc1N1CCOCC1)Nc1ncc(Cl)c-2n1 | 168 nM | > 1000 nM | 19 nM | 349 nM |  |  |  |
| CCS(=O)(=O)n1cc2c3ccc(cc31)OCCCCCCCOc1cc(ccc1N1CCOCC1)Nc1ncc(Cl)c-2n1 | 180 nM | > 1000 nM | 89.9 nM | 773 nM |  |  |  |
| C=CC(=O)Nc1cc(Nc2nccc(-c3cn(C)c4ccccc34)n2)c(OC)cc1N(C)CCN(C)C [OSIMERTINIB] | 4270 nM |  |  | 3520 nM |  |  | IC50 (BaF3 [5]): 6070 nM; IC50 (PC-9): 5430 nM; IC50 (A-431): […] |
| CCS(=O)(=O)n1cc2c3ccc(cc31)OCCCCCCOc1cc(c(Cl)cc1N1CCOCC1)Nc1ncc(Cl)c-2n1 | 140 nM | > 1000 nM | 57.8 nM | > 10000 nM |  |  |  |
| CCS(=O)(=O)n1cc(-c2nc(Nc3ccc(N4CCC(N5CCN(C)CC5)CC4)c(Cl)c3OC)ncc2Cl)c2ccccc21 |  | > 1000 nM | > 1000 nM |  | > 1000 nM | > 1000 nM |  |
| COc1cc(N2CCC(N3CCN(C)CC3)CC2)ccc1Nc1ncc(Cl)c(-c2cn(S(=O)(=O)C(C)C)c3ccccc23)n1 |  | > 1000 nM | 145 nM |  | 18 nM | 24.2 nM |  |
| CCS(=O)(=O)n1cc2c3ccc(cc31)OCCCCCCOc1cc(c(C)cc1N1CCOCC1)Nc1ncc(Cl)c-2n1 | 36 nM | 308 nM | 23.6 nM | 2080 nM |  |  | inhibition [8]: Dde; IC50 (BaF3 [5]): 52 nM; IC50 (PC-9): 644 nM; inhibition (BaF3 [9]): Dde; inhibition [10]: Dde; IC50 (A-431): 2000 nM; inhibition [11]: Dde; inhibition (BaF3 [12]): Dde; inhibition [13]: Dde |
| CCS(=O)(=O)n1cc(-c2nc(Nc3ccc(N4CCC(N5CCN(C)CC5)CC4)c(Cl)c3)ncc2Cl)c2ccccc21 |  | 466 nM | 14.4 nM |  | 2.2 nM | 4.9 nM |  |
| CCOc1cc(N2CCC(N3CCN(C)CC3)CC2)c(Cl)cc1Nc1ncc(Cl)c(-c2cn(S(=O)(=O)CC)c3ccccc23)n1 | 3150 nM | 344 nM | 4.2 nM | 7860 nM | 7.5 nM | 12 nM |  |
| CCS(=O)(=O)n1cc2c3cc(ccc31)OCCCCCCOc1cc(ccc1N1CCOCC1)Nc1ncc(Cl)c-2n1 |  | > 1000 nM | > 1000 nM |  |  |  |  |
| CCS(=O)(=O)n1cc(-c2nc(Nc3cc(C(C)C)c(N4CCC(N5CCN(C)CC5)CC4)cc3OC)ncc2Cl)c2ccccc21 |  | > 1000 nM | 478 nM |  | 74.3 nM | 116 nM |  |
| CCS(=O)(=O)n1cc(-c2nc(Nc3cc(Cl)c(N4CCC(N5CCN(C)CC5)CC4)cc3C)ncc2Cl)c2ccccc21 | 410 nM | 547 nM | 1.6 nM | 1320 nM | 16.3 nM | 4.7 nM |  |
| COc1cc(N2CCC(N3CCN(C)CC3)CC2)ccc1Nc1ncc(Cl)c(-c2cn(S(C)(=O)=O)c3ccccc23)n1 |  | > 1000 nM | 41.9 nM |  | 5.5 nM | 1.9 nM |  |
| CCS(=O)(=O)n1cc(-c2nc(Nc3ccc(N4CCC(N5CCN(C)CC5)CC4)cc3OC)ncc2Cl)c2ccccc21 |  | > 1000 nM | 34.8 nM |  | 5.6 nM | 5.6 nM |  |
| CCc1cc(Nc2ncc(Cl)c(-c3cn(S(=O)(=O)CC)c4ccccc34)n2)c(OC)cc1N1CCC(N2CCN(C)CC2)CC1 |  | 262 nM | 21.8 nM |  | 6.3 nM | 54.8 nM |  |
| CCS(=O)(=O)n1cc2c3ccc(cc31)OCCCCCCCCOc1cc(ccc1N1CCOCC1)Nc1ncc(Cl)c-2n1 | 450 nM | > 1000 nM | 142 nM | 2440 nM |  |  |  |
| COc1cc(N2CCC(N3CCN(C)CC3)CC2)ccc1Nc1ncc(Cl)c(-c2c[nH]c3ccccc23)n1 |  | > 1000 nM | 124 nM |  | 15.6 nM | 22.6 nM |  |
| CCS(=O)(=O)n1cc(-c2nc(Nc3cc(Cl)c(N4CCC(N5CCN(C)CC5)CC4)cc3OC)ncc2Cl)c2ccccc21 | 2610 nM | 816 nM | 4.3 nM | 4920 nM | 6.6 nM | 25.6 nM |  |
| CCS(=O)(=O)n1cc2c3cc(ccc31)OCCCCCOc1cc(ccc1N1CCOCC1)Nc1ncc(Cl)c-2n1 |  | > 1000 nM | > 1000 nM |  |  |  |  |
| CCS(=O)(=O)n1cc2c3ccc(cc31)OCCCCCCOc1cc(c(F)cc1N1CCOCC1)Nc1ncc(Cl)c-2n1 | 66 nM | 885 nM | 28 nM | 2560 nM |  |  |  |
| CCS(=O)(=O)n1cc2c3ccc(cc31)OCCCCCCOc1cc(c(C3CC3)cc1N1CCOCC1)Nc1ncc(Cl)c-2n1 | 263 nM | > 1000 nM | 56.4 nM | > 10000 nM |  |  |  |
| CCc1cc(N2CCOCC2)c2cc1Nc1ncc(Cl)c(n1)-c1cn(S(=O)(=O)CC)c3cc(ccc13)OCCCCCCO2 | 142 nM | > 1000 nM | 32.1 nM | 4640 nM |  |  |  |
| COc1cc(N2CCC(N3CCN(C)CC3)CC2)ccc1Nc1ncc(Cl)c(-c2cn(C(C)=O)c3ccccc23)n1 |  | > 1000 nM | 77.8 nM |  | 12.9 nM | 8.5 nM |  |
| CCS(=O)(=O)n1cc(-c2nc(Nc3cc(C)c(N4CCC(N5CCN(C)CC5)CC4)cc3OC)ncc2Cl)c2ccccc21 |  | 55.9 nM | 1.5 nM |  | 2.7 nM | 69.2 nM |  |
| CCS(=O)(=O)n1cc2c3ccc(cc31)OCCCCCCOc1cc(ccc1N1CCOCC1)Nc1ncc(Cl)c-2n1 | 16 nM | 236 nM | 6.2 nM | 293 nM |  |  |  |
| CCS(=O)(=O)n1cc(-c2nc(Nc3cc(Cl)c(N4CCC(N5CCN(C)CC5)CC4)cc3OC(C)C)ncc2Cl)c2ccccc21 | 2770 nM | 413 nM | 30.8 nM | > 10000 nM | 2.1 nM | 8.1 nM |  |
| COc1cc(N2CCC(N3CCN(C)CC3)CC2)ccc1Nc1ncc(Cl)c(Nc2ccccc2P(C)(C)=O)n1 [BRIGATINIB] | 610 nM |  |  | 1910 nM |  |  | IC50 (BaF3 [5]): 492 nM; IC50 (PC-9): 1450 nM; IC50 (A-431): 1360 nM |
| CCS(=O)(=O)n1cc2c3ccc(cc31)OCCCCOc1cc(ccc1N1CCOCC1)Nc1ncc(Cl)c-2n1 |  | > 1000 nM | > 1000 nM |  |  |  |  |
| COc1cc(N2CCC(N3CCN(C)CC3)CC2)ccc1Nc1ncc(Cl)c(-c2cn(S(=O)(=O)C3CC3)c3ccccc23)n1 |  | > 1000 nM | 222 nM |  | 32.6 nM | 33.3 nM |  |
| CCS(=O)(=O)n1cc2c3ccc(cc31)OCCCCCCOc1cc(c(C3CCCC3)cc1N1CCOCC1)Nc1ncc(Cl)c-2n1 |  | > 1000 nM | 165 nM |  |  |  |  |
